Patent US20260287509A1, “METHOD FOR MEASURING CELLULAR MECHANICS IN AN IN VITRO FIBROSIS MODEL” (National Cheng Kung University, priority 2023, published 2026)

What was measured:
NRK-49F cells [1] = assay: Atomic force microscope measurement of stiffness and morphology of NRK-49F cells and collagen fibers in the in vitro fibrosis model (coaxial AFM/confocal system); format: cell-based, rat
Description: (§1) To clearly distinguish the cells from surrounding proteins, the method employs multiple fluorescent proteins for labeling. In this embodiment, rat renal fibroblasts (NRK-49F cells) were transfected to express Lifeact-RFP and cultured on collagen gels conjugated with FITC-labeled type-I collagen. The cultures were divided into a group treated with TGF-β1 and a control group without TGF-β1. TGF-β1 was added to mimic the activation of fibroblasts into myofibroblasts in fibrotic conditions such as kidney fibrosis and keloid, enabling subsequent analysis of cell contraction and collagen fiber interactions.
(§2) In this embodiment, the coaxial microscope system combines a laser-scanning confocal microscope (FV3000, Olympus) with sharp tip probe-equipped atomic-force microscope (BioScope Resolve, Bruker) […]. Before measurement, the spring constant, deflection sensitivity, and position of the probe were calibrated using No-Touch mode in AFM and vision in confocal microscopy.
Additionally, prior to measurement, a hydrophobic material is coated onto the sharp tip probe of the atomic force microscope. This prevents the probe from adhering to collagen fibers during scanning of the sample, thereby maintaining measurement accuracy.
After calibration, the regions of interest can be selected, captured, and measured using the coaxial microscope system. The elastic moduli are calculated from force-distance curves using a modified Sneddon model implemented in Bruker data-analysis software. Collagen fibers and cells are further analyzed for morphology and rigidity using NanoScope Analysis software (v1.9, Bruker).
FIG. 2 schematically illustrates a simplified experimental workflow for selecting the regions of interest and examining the sample using a coaxial microscope system of the laser scanning confocal microscope and the atomic force microscope. FITC-labeled collagen gels are prepared and seeded with Lifeact-RFP-transfected NRK-49F cells. After 24 hours of culture, drugs are added and media are refreshed. The prepared sample is mounted on the coaxial microscope system, the scan area is marked, and the sample is adjusted to the pre-marked area. Subsequently, images are acquired using the coaxial confocal microscope and atomic force microscope. Finally, the fluorescence and morphological images are merged, and the mechanical properties of the cells and collagen fibers are analyzed using software

NRK-49F cells [2] = assay: Confocal fluorescence imaging of FITC-labeled collagen fibers in NRK-49F cultures (FITC content); format: cell-based, rat; conditions: after TGF-β1 stimulation vs control; FIG. 3 and FIG. 4 (FITC content)
Description: as §1, §2
FIG. 2 schematically illustrates a simplified experimental workflow for selecting the regions of interest and examining the sample using a coaxial microscope system of the laser scanning confocal microscope and the atomic force microscope. […] Finally, the fluorescence and morphological images are merged, and the mechanical properties of the cells and collagen fibers are analyzed using software

[3] = after TGF-β1 treatment vs control, AFM images, figure not shown

transforming growth factor β1 [TGF-β1]
increase in stiffness of collagen fibers (NRK-49F cells [1]; TGF-β1-treated vs control without TGF-β1, FITC-labeled type-I collagen gel seeded with Lifeact-RFP NRK-49F cells, AFM elastic modulus, FIG. 6): approximately 6.5 fold
increase in stiffness of NRK-49F cells (NRK-49F cells [1]; TGF-β1-treated vs control without TGF-β1, Lifeact-RFP NRK-49F cells on collagen gel, AFM elastic modulus, FIG. 6): ~6.7 fold
angle between collagen fibers and NRK-49F cells (A) (NRK-49F cells [1]; [3]): no significant difference
diameter of collagen fibers (D1) (NRK-49F cells [1]; [3]): no significant difference
density of collagen fibers (NRK-49F cells [2]): markedly increased
